“Also recorded” adds a separate entry of the source. Marks after values point to notes of the source that are not given here.
How the values were obtained:
hiPSC-CM = hiPSC-CM MEA assay (FPDc, extracellular field potential); settings: for cytotoxicity at the test concentrations: up to 30 µM, data not shown
Experimental: Briefly, each well of the MEA chips was precoated with 50 μg/ml fibronectin for 3 h in the incubator at 37 °C with 5% CO2. The fibronectin coating solution was aspirated before seeding. Cells were thawed in the incubator at 37 °C for exactly 4 min and carefully transferred to a 50-ml tube. The original vial was rinsed with serum free Pluricyte® Cardiomyocyte Medium and added drop-wise to the tube containing the cardiomyocytes. […] Then, the supernatant was removed and medium was drop-wisely added to reach the aimed concentration of cells in the suspension (10^4 cells/μl). 2-μl cell suspension per well was placed on the six-well MEA chips in a density of 10^4 cells/μl. After 3-h incubation (37 °C, 5% CO2), 200 μl of medium was filled into each well of the MEA chips which were subsequently incubated at 37 °C with 5% CO2 and refreshed with medium every 2 days.
At 7–8 days after seeding, MEA chips were placed on the headstage of a MEA2100-system (MCS GmbH) integrated with the chamber providing a stable atmosphere (37 °C, 5% CO2) to record the extracellular field potential (Fig. 2) of spontaneous beating hiPSC-CM. After an equilibration time of 20 min, half of the medium (100 μl) in each well was replaced by culture medium containing 0.2% (v/v) DMSO to reach a final concentration of 0.1% (v/v) DMSO, which was used as baseline condition. […] At each concentration, the extracellular field potential was recorded for 1 min after 10-min exposure. […] Same test concentrations were chosen for EDDP and EMDP, which enables definition of concentration-dependent curves for EDDP and EMDP that allow potency comparison.
One well of 0.1% (v/v) DMSO on each MEA chip was used as the vehicle control well and run at the same time as the compound exposure wells to correct for time- and DMSO-dependent effects on the field potential. A detailed exposure scheme can be found in Fig. S1. Data were collected using Cardio 2D software (MCS GmbH) with a sample frequency of 10 kHz and a 0.1–3.5-kHz band-pass filter.
Field potential duration (FPD) was defined as duration between the beginning of the sodium spike and the repolarizing peak (Fig. 2). RR-intervals were defined as the duration between two depolarization peaks (Fig. 2). The FPD and RR-interval were measured as the average of at least 30 beats from 1-min recording at each concentration of the test compound.
In this formula, the FPD and RR-interval are expressed in seconds. Data were collected from at least three independent experiments (4–8 wells, 26–38 electrodes), using a new vial of cells (all from the same batch) at each independent experiment. […] The concentrations inducing irregularities in the field potential trace (Fig. S2) were also noted.
The concentration–response curves were plotted with GraphPad Prism 5.0 using the four-parameters logistic fit (GraphPad Software Inc., San Diego, USA). Each data point is presented as the mean value of at least three independent experiments ± standard deviation (SD). Statistical significance of the changes in response of cells exposed to the compound compared to the solvent control was analyzed by one-way ANOVA followed by post Dunnett test. Values of p < 0.05 were regarded as statistically significant (p < 0.05: *, p < 0.01: ** and p < 0.001: ***). Statistical analysis was performed by GraphPad Prism 5.0 (GraphPad Software Inc.).

[1] = In vitro incubations with pooled human liver microsomes; settings: EDDP as substrate, 1000 µM
Experimental: The test concentrations were chosen to enable adequate analysis of Michaelis–Menten kinetics. After one-min pre-incubation of this solution at 37 °C, the reactions were initiated by addition of human liver microsomes giving a final concentration of 0.5 mg/ml microsomal protein and incubations were performed in a shaking water bath at 37 °C for 40 min. Control incubations were performed in the absence of NADPH which was replaced with Tris–HCl. The reactions were terminated by addition of 40-µl ice-cold acetonitrile. Samples were kept on ice for at least 20 min and then centrifuged at 18,000g for 5 min at 4 °C to precipitate microsomal proteins.
Vmax and Km were obtained by fitting the data to Eq. (2) in GraphPad Prism 5.0 (GraphPad Software Inc.). Data were collected from three independent experiments and each data point is presented as the mean value ± SD.

[2] = parameters: method as in Hsu et al. ([2013]); settings: subjects on methadone maintenance treatment; ref Hsu et al. ([2013]); cited from earlier work
hERG channels = settings: ref Eap et al. [2007], cited from earlier work
[3] = ref Foster [2001]; cited from earlier work
[4] = cited from earlier work
[5] = RED assay, unbound fraction in pooled human plasma
Experimental: (§1) Then, 25 µl of post-dialysis samples were collected from the sample chambers and transferred to test sample tubes followed by an addition of 25 µl PBS. Equal volumes of post-dialysis samples collected from the buffer chamber which were then mixed with 25 µl of in vitro medium or human plasma in the buffer sample tubes. Then, both samples were precipitated using 300-µl cold acetonitrile/water (90/10 v/v). The samples were put on ice for 30 min followed by centrifugation for 30 min at 15,000g. Then, supernatants were collected for UPLC–PDA analysis.
(§2) The measurements were performed in triplicate in two independent experiments.

[6] = RED assay, unbound fraction in in vitro hiPSC-CM MEA assay medium; settings: in vitro hiPSC-CM MEA assay medium (serum-free)
Experimental: as §1, §2

Row | SMILES | BMC20, prolongation of FPDc (hiPSC-CM; 20% change in FPDc over control, cumulative addition, 10-min exposure) [µM] | unbound BMC20 (hiPSC-CM; BMC20 corrected for unbound fraction in medium) [µM] | concentration at which cessation of beating was observed (hiPSC-CM; human, 10 min) [µM] | concentration from which arrhythmia-like waveforms were induced (hiPSC-CM; tested up to 30 µM) [µM] | cytotoxicity at the test concentrations (hiPSC-CM) | EMDP formation from EDDP [1] | BPr (blood/plasma ratio) [2] | hERG channel block (hERG channels; Katchman et al. [2002]) | recovery of EDDP in feces [3] | free blood Cmax of EDDP ([4]; oral methadone 57.5 mg/day, estimated from reported EDDP data, ref De Vos et al. ([1995])) [µM] | fraction unbound at 5 h, 150 µM [5] | fraction unbound at 5 h, 150 µM [6] | concentration shortening the FPDc by 20% (BMC20 for decreasing FPDc) (hiPSC-CM; cumulative addition, 10-min exposure) [µM] | concentration causing beating arrest in certain wells (hiPSC-CM; in certain wells) [µM] | arrhythmia-type waveforms / FPDc prolongation (hiPSC-CM; test range 0.1-30 µM) | hERG channel inhibition (hERG channels) | in vivo total plasma concentration of EMDP ([4]; after clinical relevant dosing of methadone, ref Alburges et al. [1996])
1 | CC=C1N(C)C(C)CC1(c1ccccc1)c1ccccc1 (stereo not drawn) [EDDP, 2-ethylidene-1,5-dimethyl-3,3-diphenylpyrrolidine] | 2.3 | 2.07 | 30 | ≥ 3 | no cytotoxicity was observed | formation of EMDP was neither detectable | 0.87^c | weaker hERG channel blocker compared to methadone | up to 39% | 0.05 | 0.3 ± 0.015 | 0.9 ± 0.072 | – | – | – | – | –
2 | CCC1=NC(C)CC1(c1ccccc1)c1ccccc1 (stereo not drawn) [EMDP, 2-ethyl-5-methyl-3,3-diphenylpyrroline] | – | – | – | – | no cytotoxicity was observed | – | – | – | – | – | – | – | 3.8 | 30 | without inducing arrhythmia-type waveforms; also recorded: Neither FPDc prolongation nor arrhythmia-type waveforms were observed | not inhibit hERG channels | less than 0.04 µM

Reference: article PMC7395048 (Archives of Toxicology, 2020)
